Data set [1] concerns B16F10 murine melanoma cancer cell. The data set is described as follows: cytotoxicity against cancer cells by poly6-treated DC2.4 cells, FACS. In kind it is cell-based. Here is the method:
(§1) FIG. 7 illustrates the results of confirming that the cytotoxicity of various cancer cell lines (MC38, B16F10, and EO771) was reduced when iNOS formation was inhibited by L-NAME (5 mM) treatment while stimulating DC2.4 cells with poly6 for 24 hours (statistical significance was tested by Student's t-test. *, P<0.05; **, P<0.01; and ***, P<0.001).

The subject of data set [2] is MC38 murine colon cancer cell. The data set is described as above. It counts as cell-based. Here is the method: as §1
In the next data set the test system is EO771. The description is as above. In kind it is cell-based, murine. Here is the method: as §1
Data set [3] concerns PanO2 murine pancreatic cancer cell. The conditions noted are these: concentration-dependent.
The subject of data set [4] is MDA231 human breast cancer cell. The conditions noted are these: concentration-dependent.
The mark [5] stands for this setting: DC2.4 treated with 10 μM of poly6 vs LPS (1 μg/ml).
The mark [6] stands for this setting: L-NAME 5 mM while stimulating DC2.4 with poly6 for 24 hours.

Ends that are not written are not given here.

For the molecule GRLVFQ [poly6, GRLVFQ], the “cytotoxicity against cancer cells compared to LPS” value in data set [1] (setting [5]) and in data set [2] (setting [5]) was “statistically significantly increased” each time. In addition, the “cytotoxicity by poly6-stimulated DC2.4 cells” value (in data set [1] (concentration-dependent); in data set [2] (concentration-dependent); in the data set with EO771 (concentration-dependent); in data set [3]; in data set [4]) was “cytotoxicity was induced” each time.
On to `COC(=O)[C@@H](N)CCCNC(=N)N[N+](=O)[O-]` [L-NAME, reference compound], for which the “cytotoxicity when iNOS formation was inhibited” value (in data set [1] (setting [6]); in data set [2] (setting [6]); with EO771 (setting [6])) was “reduced” throughout.
